The target in data set [1] is human V1aR (Homo sapiens, UniProt P37288). Type of data set: binding. Particulars: competition with [3H]-AVP, NIMH PDSP.
In data set [2] the target is T1, human vasopressin receptor V1b (Homo sapiens, UniProt P47901).
T1 sequence (P47901 1-424): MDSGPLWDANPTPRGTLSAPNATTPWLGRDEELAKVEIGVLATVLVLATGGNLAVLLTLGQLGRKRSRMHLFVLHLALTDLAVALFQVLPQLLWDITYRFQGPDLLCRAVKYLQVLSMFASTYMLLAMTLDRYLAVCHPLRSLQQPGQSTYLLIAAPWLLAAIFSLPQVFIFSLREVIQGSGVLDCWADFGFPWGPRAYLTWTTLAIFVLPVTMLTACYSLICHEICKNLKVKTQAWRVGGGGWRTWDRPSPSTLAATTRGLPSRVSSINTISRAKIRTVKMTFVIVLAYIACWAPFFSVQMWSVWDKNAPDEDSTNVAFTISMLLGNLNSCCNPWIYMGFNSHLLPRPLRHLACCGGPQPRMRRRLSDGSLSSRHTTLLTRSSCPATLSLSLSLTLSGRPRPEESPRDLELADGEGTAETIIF
Type of data set: binding. The note with it: competition with [3H]-AVP, NIMH PDSP.

For data set [3], the target named is human vasopressin receptor V2 (Homo sapiens, UniProt P30518). It is filed as binding. Particulars: competition with [3H]-AVP, NIMH PDSP.
The conditions of data set [4]: cited from earlier work.
Data set [5] has as its system rodent OTR. The note with it: prairie vole brain sections.
The target of data set [6] is T2, human OTR (Homo sapiens, UniProt P30559).
T2 sequence (P30559 1-389): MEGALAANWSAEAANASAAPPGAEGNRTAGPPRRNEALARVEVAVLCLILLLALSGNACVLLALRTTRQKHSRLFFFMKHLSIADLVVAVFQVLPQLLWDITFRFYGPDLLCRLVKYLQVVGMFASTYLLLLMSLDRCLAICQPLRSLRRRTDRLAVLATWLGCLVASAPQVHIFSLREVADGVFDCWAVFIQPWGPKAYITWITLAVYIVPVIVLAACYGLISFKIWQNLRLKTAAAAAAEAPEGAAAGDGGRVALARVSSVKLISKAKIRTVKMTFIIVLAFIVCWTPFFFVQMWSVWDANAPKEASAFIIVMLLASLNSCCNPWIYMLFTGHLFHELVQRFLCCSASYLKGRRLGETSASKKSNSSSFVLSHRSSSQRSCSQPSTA
Type of data set: binding. The note with it: human receptors.

The structures appear in SMILES notation.

Chain of human V1aR (P37288 whole entry): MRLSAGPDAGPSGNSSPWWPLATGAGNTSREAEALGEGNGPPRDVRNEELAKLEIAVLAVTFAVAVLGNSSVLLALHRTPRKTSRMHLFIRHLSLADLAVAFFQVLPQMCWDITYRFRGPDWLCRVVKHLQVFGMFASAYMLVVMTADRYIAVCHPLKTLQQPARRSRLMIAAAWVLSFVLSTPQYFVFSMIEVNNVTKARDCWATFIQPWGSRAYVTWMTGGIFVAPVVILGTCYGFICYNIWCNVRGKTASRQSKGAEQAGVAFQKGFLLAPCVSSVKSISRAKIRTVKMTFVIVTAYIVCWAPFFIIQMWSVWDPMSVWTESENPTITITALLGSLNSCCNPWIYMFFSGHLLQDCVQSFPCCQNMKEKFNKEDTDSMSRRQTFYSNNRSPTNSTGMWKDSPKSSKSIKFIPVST
Chain of human vasopressin receptor V2 (P30518 whole entry): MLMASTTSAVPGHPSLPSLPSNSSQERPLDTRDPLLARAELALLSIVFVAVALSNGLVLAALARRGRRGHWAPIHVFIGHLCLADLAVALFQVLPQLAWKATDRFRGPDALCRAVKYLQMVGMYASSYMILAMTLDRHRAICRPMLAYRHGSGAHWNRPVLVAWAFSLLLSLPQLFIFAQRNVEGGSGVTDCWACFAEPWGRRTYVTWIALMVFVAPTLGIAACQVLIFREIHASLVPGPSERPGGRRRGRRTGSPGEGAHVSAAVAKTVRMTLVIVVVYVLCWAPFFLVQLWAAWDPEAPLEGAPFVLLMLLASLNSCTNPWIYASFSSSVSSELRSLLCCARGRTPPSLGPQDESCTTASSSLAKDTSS

In the case of `CS(=O)(=O)N1CCC(Oc2ccc(CC(=O)N3CCC(N4C(=O)CCc5ccccc54)CC3)c(O)c2)CC1` [Compound 13, 1-(1-(2-(2-Hydroxy-4-(1-(methylsulfonyl)piperidin-4-yloxy)phenyl)acetyl)piperidin-4-yl)-3,4-dihydroquinolin-2(1H)-one], the “Ki Human V1aR” value in data set [1] is recorded as “no detectable affinity”. For the same compound, the “Ki Human V1b” value in data set [2] is listed as “no detectable affinity”. Besides, in data set [3], the “Ki Human V2” value is on record as “no detectable affinity”.

Take `COc1cc(OC2CCN(C(C)=O)CC2)ccc1C(=O)N1CCC(N2C(=O)OCc3ccccc32)CC1` [Compound L-371257]: the brain penetration result in data set [4] is reported as “very poor brain penetrant”.

Take `COc1cc(OC2CCN(S(C)(=O)=O)CC2)ccc1CC(=O)N1CCC(N2C(=O)CCc3ccccc32)CC1` [Compound 4, 1-(1-(2-(2-Methoxy-4-((1-(methylsulfonyl)piperidin-4-yl)oxy)phenyl)acetyl)piperidin-4-yl)-3,4-dihydroquinolin-2(1H)-one]: the “selectivity for the rodent OTR over V1aR” value in data set [5] is “four times more selective”.

`CS(=O)(=O)N1CCC(Oc2ccc(CC(=O)N3CCC(N4C(=O)CCc5ccccc54)CC3)c(OC/C=C/I)c2)CC1` [Compound 1, (E)-1-(1-(2-(2-(3-Iodoallyloxy)-4-(1-(methylsulfonyl)piperidin-4-yloxy)phenyl)acetyl)piperidin-4-yl)-3,4-dihydroquinolin-2(1H)-one]: in data set [6], the “potency for the human OTR over V1aR” value was 79 fold.
